Patent US6737383B1, “Herbicidal oxadiazolidines” (priority 1999, dated 2004)

Tests used:
morningglory = assay: Test B pre/postemergence morningglory; format: in vivo, Ipomoea hederacea
How it was run: (§1)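 Herbicidal effect was estimated by eye on a ten-point control scale after plants spent twelve to sixteen days in a greenhouse following soil or foliar treatment. Foliar sprays targeted plants at one to four leaves; all doses were formulated in a non-phytotoxic solvent with surfactant.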

rape = assay: Test B pre/postemergence rape; format: in vivo, Brassica napus
How it was run: as §1

smallflower flatsedge = assay: Test B flood test smallflower flatsedge; format: in vivo, Cyperus difformis
How it was run: (§2)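 Plants were grown to the 2-leaf stage before treatment with test chemical, then held in a greenhouse for twelve to sixteen days. Injury was visually rated against untreated controls on a 0–10 scale, where 0 is no effect and 10 is complete control.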

bamyardgrass = assay: Test B flood test barnyardgrass; format: in vivo, Echinochloa crus-galli
How it was run: as §2

winter wheat [1] = assay: Test E winter wheat; format: in vivo, Triticum aestivum; details: Postemergence
How it was run: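 For postemergence, sowings are timed so plants reach the 1- to 4-leaf stage at spraying. Test compound is applied in a surfactant-containing solvent mixture that is non-phytotoxic. Response is judged by eye against untreated controls after approximately 21 to 28 days.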

blackgrass = assay: Test E blackgrass; format: in vivo, Alopecurus myosuroides; details: Preemergence
green foxtail = assay: Test E green foxtail; format: in vivo, Setaria viridis; details: Preemergence
Italian ryegrass = assay: Test E Italian ryegrass; format: in vivo, Lolium multiflorum; details: Preemergence
winter wheat [2] = assay: Test E winter wheat; format: in vivo, Triticum aestivum; details: Preemergence
wild oat = assay: Test E wild oat; format: in vivo, Avena fatua; details: Preemergence
winter barley = assay: Test E winter barley; format: in vivo, Hordeum vulgare; details: Preemergence
[3] = Preemergence, Rate 62 g/ha, scale of 0 to 10 where 0 is no effect and 10 is complete control
[4] = Preemergence, Rate 250 g/ha, scale of 0 to 10 where 0 is no effect and 10 is complete control
[5] = Preemergence, Rate 500 g/ha, scale of 0 to 10 where 0 is no effect and 10 is complete control
[6] = Rate 125 g/ha, Postemergence, scale of 0 to 10 where 0 is no effect and 10 is complete control
[7] = Rate 125 g/ha, Preemergence, scale of 0 to 10 where 0 is no effect and 10 is complete control
[8] = Rate 250 g/ha, Postemergence, scale of 0 to 10 where 0 is no effect and 10 is complete control
[9] = Rate 500 g/ha, Postemergence, scale 0 to 10, 0 no effect, 10 complete control
[10] = Rate 62 g/ha, headed Pre-emergence (flood test species), scale 0 to 10 (0 no effect, 10 complete control)
[11] = Rate 125 g/ha, Pre-emergence, flood test species, scale 0 to 10 where 0 is no effect and 10 is complete control
[12] = Rate 250 g/ha, Pre-emergence, flood-test species, scale 0 to 10, 0 is no effect, 10 is complete control
[13] = Rate 500 g/ha, Pre-emergence, flood test species, scale 0 to 10 (0 no effect, 10 complete control)
[14] = Rate 125 g/ha, 0 to 100 scale, 0 is no effect, 100 is complete control
[15] = Rate 250 g/ha, 0 to 100 scale where 0 is no effect and 100 is complete control
[16] = Rate 500 g/ha, 0 to 100 scale, 0 is no effect, 100 is complete control
[17] = Rate 125 g/ha, 0 to 100 scale (0 no effect, 100 complete control)
[18] = Rate 500 g/ha, 0 to 100 scale where 0 is no effect and 100 is complete control
[19] = Preemergence, Rate 31 g/ha, visual rating, scale 0 to 10 (0 no effect, 10 complete control)
[20] = Rate 31 g/ha, Postemergence, scale 0 to 10
[21] = Rate 62 g/ha, Postemergence, scale 0 to 10, 0 no effect, 10 complete control
[22] = Rate 31 g/ha, Pre-emergence section (flood test species), scale 0 to 10
[23] = Rate 1000 g/ha, 0 to 100 scale where 0 is no effect and 100 is complete control
[24] = Rate 500 g/ha, 0 to 100 scale (0 no effect, 100 complete control)
[25] = Rate 1000 g/ha, 0 to 100 scale, 0 no effect, 100 complete control
[26] = Postemergence, Rate 125 g/ha, scale 0 to 10, 0 is no effect, 10 is complete control
[27] = Rate 62 g/ha, Postemergence, scale of 0 to 10 where 0 is no effect and 10 is complete control

CC(C)N(C(=O)n1oc(=O)n(CC(C)(C)C)c1=O)c1ccccc1 [Compound 276]
Morningglory plant response rating (morningglory; [3]): 0
Morningglory plant response rating (morningglory; [4]): 0
Plant response rating, Morningglory (morningglory; [5]): 0
Morningglory plant response rating (morningglory; [6]): 6
Morningglory plant response rating (morningglory; [7]): 0
Plant response rating, Morningglory (morningglory; [8]): 6
Morningglory plant response rating (morningglory; [9]): 8
Rape plant response rating (rape; [3]): 0
Rape plant response rating (rape; [4]): 1
Plant response rating, Rape (rape; [5]): 10
Rape plant response rating (rape; [6]): 0
Rape plant response rating (rape; [7]): 0
Plant response rating, Rape (rape; [8]): 0
Rape plant response rating (rape; [9]): 0
S. Flatsedge plant response rating (smallflower flatsedge; [10]): 0
S. Flatsedge plant response rating (smallflower flatsedge; [11]): 0
S. Flatsedge plant response rating (smallflower flatsedge; [12]): 0
S. Flatsedge plant response rating (smallflower flatsedge; [13]): 0
Barnyardgrass plant response rating (bamyardgrass; [10]): 1
Barnyardgrass plant response rating (bamyardgrass; [11]): 6
Barnyardgrass plant response rating (bamyardgrass; [12]): 8
Barnyardgrass plant response rating (bamyardgrass; [13]): 8
Plant response rating, Wheat (winter) (winter wheat [1]; [14]): 10
Wheat (winter) plant response rating (winter wheat [1]; [15]): 10
Plant response rating, Wheat (winter) (winter wheat [1]; [16]): 20
Plant response rating, Blackgrass (blackgrass; [17]): 30
Blackgrass plant response rating (0 to 100 scale) (blackgrass; Rate 250 g/ha): 50
Plant response rating, Blackgrass (blackgrass; [18]): 50
Plant response rating, Green foxtail (green foxtail; [17]): 60
Green foxtail plant response rating (0 to 100 scale) (green foxtail; Rate 250 g/ha): 100
Plant response rating, Green foxtail (green foxtail; [18]): 98
Plant response rating, I. Ryegrass (Italian ryegrass; [17]): 30
I. Ryegrass plant response rating (0 to 100 scale) (Italian ryegrass; Rate 250 g/ha): 60
Plant response rating, I. Ryegrass (Italian ryegrass; [18]): 50
Plant response rating, Wheat (winter) (winter wheat [2]; [17]): 20
Wheat (winter) plant response rating (0 to 100 scale) (winter wheat [2]; Rate 250 g/ha): 30
Plant response rating, Wheat (winter) (winter wheat [2]; [18]): 50
Plant response rating, Wild oat (wild oat; [17]): 50
Wild oat plant response rating (0 to 100 scale) (wild oat; Rate 250 g/ha): 60
Plant response rating, Wild oat (wild oat; [18]): 60
Plant response rating, Barley (winter) (winter barley; [17]): 50
Barley (winter) plant response rating (0 to 100 scale) (winter barley; Rate 250 g/ha): 30
Plant response rating, Barley (winter) (winter barley; [18]): 50

CC(Cl)=CCn1c(=O)on(C(=O)N(c2ccc(F)cc2)C(C)C)c1=O [Compound 285]
Morningglory plant response rating (morningglory; [19]): 0
Morningglory plant response rating (morningglory; [3]): 0
Morningglory plant response rating (morningglory; [4]): 0
Morningglory plant response rating (morningglory; [20]): 1
Morningglory plant response rating (morningglory; [21]): 3
Morningglory plant response rating (morningglory; [6]): 5
Morningglory plant response rating (morningglory; [7]): 0
Plant response rating, Morningglory (morningglory; [8]): 5
Rape plant response rating (rape; [19]): 0
Rape plant response rating (rape; [3]): 0
Rape plant response rating (rape; [4]): 3
Rape plant response rating (rape; [20]): 0
Rape plant response rating (rape; [21]): 0
Rape plant response rating (rape; [6]): 0
Rape plant response rating (rape; [7]): 0
Plant response rating, Rape (rape; [8]): 0
S. Flatsedge plant response rating (smallflower flatsedge; [22]): 0
S. Flatsedge plant response rating (smallflower flatsedge; [10]): 0
S. Flatsedge plant response rating (smallflower flatsedge; [11]): 0
S. Flatsedge plant response rating (smallflower flatsedge; [12]): 0
Barnyardgrass plant response rating (bamyardgrass; [22]): 0
Barnyardgrass plant response rating (bamyardgrass; [10]): 0
Barnyardgrass plant response rating (bamyardgrass; [11]): 0
Barnyardgrass plant response rating (bamyardgrass; [12]): 7
Plant response rating, Wheat (winter) (winter wheat [1]; [14]): 20
Plant response rating, Wheat (winter) (winter wheat [1]; [23]): 30
Wheat (winter) plant response rating (winter wheat [1]; [15]): 20
Plant response rating, Wheat (winter) (winter wheat [1]; [16]): 40
Plant response rating, Blackgrass (blackgrass; [17]): 20
Plant response rating, Blackgrass (blackgrass; [24]): 55
Plant response rating, Blackgrass (blackgrass; [25]): 70
Plant response rating, Green foxtail (green foxtail; [17]): 20
Plant response rating, Green foxtail (green foxtail; [24]): 60
Plant response rating, Green foxtail (green foxtail; [25]): 65
Plant response rating, I. Ryegrass (Italian ryegrass; [17]): 20
Plant response rating, I. Ryegrass (Italian ryegrass; [24]): 70
Plant response rating, I. Ryegrass (Italian ryegrass; [25]): 70
Plant response rating, Wheat (winter) (winter wheat [2]; [17]): 30
Plant response rating, Wheat (winter) (winter wheat [2]; [24]): 25
Plant response rating, Wheat (winter) (winter wheat [2]; [25]): 50
Plant response rating, Wild oat (wild oat; [17]): 10
Plant response rating, Wild oat (wild oat; [24]): 20
Plant response rating, Wild oat (wild oat; [25]): 40
Plant response rating, Barley (winter) (winter barley; [17]): 0
Plant response rating, Barley (winter) (winter barley; [24]): 10
Plant response rating, Barley (winter) (winter barley; [25]): 20

CC(C)N(C(=O)n1oc(=O)n(C2CCCCCC2)c1=O)c1ccc(F)cc1 [Compound 340]
Plant response rating, Morningglory (morningglory; [26]): 7
Morningglory plant response rating (morningglory; [3]): 0
Morningglory plant response rating (0 to 10 scale) (morningglory; Preemergence, Rate 125 g/ha): 0
Morningglory plant response rating (morningglory; [4]): 0
Morningglory plant response rating (morningglory; [5]): 0
Morningglory plant response rating (morningglory; [27]): 2
Plant response rating, Morningglory (morningglory; [9]): 10
Plant response rating, Rape (rape; [26]): 2
Rape plant response rating (rape; [3]): 0
Rape plant response rating (0 to 10 scale) (rape; Preemergence, Rate 125 g/ha): 0
Rape plant response rating (rape; [4]): 0
Rape plant response rating (rape; [5]): 0
Rape plant response rating (rape; [27]): 2
Plant response rating, Rape (rape; [9]): 6
S. Flatsedge plant response rating (smallflower flatsedge; [10]): 0
S. Flatsedge plant response rating (smallflower flatsedge; [11]): 0
S. Flatsedge plant response rating (smallflower flatsedge; [12]): 2
S. Flatsedge plant response rating (smallflower flatsedge; [13]): 9
Barnyardgrass plant response rating (bamyardgrass; [10]): 7
Barnyardgrass plant response rating (bamyardgrass; [11]): 6
Barnyardgrass plant response rating (bamyardgrass; [12]): 10
Barnyardgrass plant response rating (bamyardgrass; [13]): 9
Plant response rating, Wheat (winter) (winter wheat [1]; Rate 250 g/ha, 0 to 100 scale, 0 is no effect, 100 is complete control): 30
Plant response rating, Wheat (winter) (winter wheat [1]; [23]): 60
Plant response rating, Wheat (winter) (winter wheat [1]; [16]): 55
Plant response rating, Blackgrass (blackgrass; Rate 250 g/ha, 0 to 100 scale): 50
Plant response rating, Blackgrass (blackgrass; [24]): 60
Plant response rating, Blackgrass (blackgrass; [25]): 85
Plant response rating, Green foxtail (green foxtail; Rate 250 g/ha, 0 to 100 scale): 30
Plant response rating, Green foxtail (green foxtail; [24]): 60
Plant response rating, Green foxtail (green foxtail; [25]): 100
Plant response rating, I. Ryegrass (Italian ryegrass; Rate 250 g/ha, 0 to 100 scale): 55
Plant response rating, I. Ryegrass (Italian ryegrass; [24]): 60
Plant response rating, I. Ryegrass (Italian ryegrass; [25]): 65
Plant response rating, Wheat (winter) (winter wheat [2]; Rate 250 g/ha, 0 to 100 scale): 40
Plant response rating, Wheat (winter) (winter wheat [2]; [24]): 50
Plant response rating, Wheat (winter) (winter wheat [2]; [25]): 60
Plant response rating, Wild oat (wild oat; Rate 250 g/ha, 0 to 100 scale): 50
Plant response rating, Wild oat (wild oat; [24]): 50
Plant response rating, Wild oat (wild oat; [25]): 60
Plant response rating, Barley (winter) (winter barley; Rate 250 g/ha, 0 to 100 scale, 0 no effect, 100 complete control): 50
Plant response rating, Barley (winter) (winter barley; [24]): 40
Plant response rating, Barley (winter) (winter barley; [25]): 50
